The test system of experiment [1] is U937 cells. Kind of experiment: Human U937 cellular necroptosis assay. Particulars: U-937; U937 cells stimulated with 25 ng/mL human TNFalpha and 25 μM z-VAD-FMK; 22 hr; Cell Titer-Glo viability. It counts as cell-based. How it is done: Human U937 Cellular Necroptosis Assay
The human monocytic cell line U937 (CRL-1593.2) may be purchased from ATCC. The cells are routinely maintained in RPMI-1640 Medium (Gibco, Catalog #11875-093) supplemented with 10% heat inactivated fetal bovine serum (Gibco, Catalog #16140-071), 100 units/mL penicillin and 100 μg/mL streptomycin (Gibco, Catalog #15140-122), in a humidified incubator (37° C., 5% CO2). For the assay, cells are resuspended in RPMI-1640 phenol red free Media (Gibco, Catalog #11835-030) supplemented with 10% fetal bovine serum (Sigma, Catalog #F2442), 100 units/mL penicillin and 100 ug/mL streptomycin. […] Stock solutions of the test compounds are prepared in 100% DMSO (Sigma, Catalog #D2650) and serially diluted 1:3 using 100% DMSO. Compounds are additionally diluted 1:40 in assay medium, and 10 μL/well was transferred to the plate. Following the compound addition, the plate is incubated at 37° C. and 5% CO2 for 22 hr. After 22 hr, viability is assessed with the addition of 20 μL of Cell Titer-Glo 2.0 (Promega, Catalog #G9243). The tissue culture plate is shaken on an orbital shaker at 300 RPM for 15 minutes at room temperature in the dark. Luminescence is measured using a PerkinElmer Envision™ plate reader. IC50 values are calculated using a four-parameter logistic curve fit using Genedata Screener software.
Background: Cellular ATP, detected with luciferase, serves as a proxy for viable cell number.

For experiment [2], the target named is RIPK1 (Homo sapiens (Human), UniProt Q13546). As to the kind of experiment: ADP-Glo kinase assay, RIPK1 activity. Particulars: 5 nM RIPK1, 50 μM ATP, 6 hr reaction. In kind it is biochemical. On the procedure:
In order to measure RIPK1 activity the ADP-Glo kinase assay (Promega, Catalog #V7002) was used to measure the conversion of ATP to ADP. This enzymatic assay was performed in a 384-well white, Optiplate (Perkin Elmer, Catalog #6007299) with assay buffer consisting of 50 mM HEPES pH 7.5 (Gibco, Catalog #15630-080), 50 mM NaCl (Teknova, Catalog #S0252), 30 mM MgCl2 (Ambion, Catalog #AM9530G), 1 mM DTT (Santa Cruz Biotechnology, Catalog #sc-29089), 0.05% BSA (Sigma, Catalog #A3059-50G) and 0.02% CHAPS (Sigma, Catalog #C5070-5G). Stock solutions of the test compounds were prepared in 100% DMSO (Sigma, Catalog #D2650) and serially diluted 1:3 using 100% DMSO. Compounds were additionally diluted 1:40 in assay buffer, and 2 μL/well were transferred to the assay plate. 4 μL/well (final concentration of 5 nM) of RIPK1 protein (SignalChem, Catalog #R07-11G-05) diluted in assay buffer and added to the assay plate followed by a 10 minute preincutation at room temperature. 4 μL/well of ATP (Promega, Catalog #V7002) (final concentration of 50 μM) diluted in assay buffer were then added to the assay plate followed by a 6 hr reaction time. Final concentrations of RIPK1 and ATP refer to a 10 μL volume. Luminescence was measured using a BioTek Synergy™ NEO plate reader. IC50 values were calculated using a four-parameter logistic curve fit using Genedata Screener software.
A general note: In ADP-Glo the light output rises with the ADP produced.

Chain of RIPK1 (Q13546 1-327): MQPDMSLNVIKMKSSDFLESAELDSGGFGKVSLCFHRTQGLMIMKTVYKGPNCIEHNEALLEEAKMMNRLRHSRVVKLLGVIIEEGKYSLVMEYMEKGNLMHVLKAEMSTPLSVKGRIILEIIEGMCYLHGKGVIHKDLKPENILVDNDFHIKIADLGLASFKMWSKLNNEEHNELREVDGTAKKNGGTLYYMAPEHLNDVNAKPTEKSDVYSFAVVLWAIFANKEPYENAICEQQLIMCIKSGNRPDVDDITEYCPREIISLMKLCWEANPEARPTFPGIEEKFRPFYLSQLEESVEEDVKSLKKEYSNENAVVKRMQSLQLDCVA

`O=C1c2nn(Cc3ccccc3)c(Cl)c2CCN1c1cccc(Cl)c1F` [Example 2, 2-Benzyl-3-chloro-6-(3-chloro-2-fluoro-phenyl)-4,5-dihydropyrazolo[3,4-c]pyridin-7-one]: the results for the IC50 in experiment [1] and in experiment [2] were 71.2 nM and 17.4 nM, respectively. For the compound `O=C1c2nn(Cc3cc(F)cc(F)c3)c(Cl)c2CCN1c1cccc(Cl)c1F` [Example 3, 3-Chloro-6-(3-chloro-2-fluorophenyl)-2-(3,5-difluorobenzyl)-5,6-dihydro-2H-pyrazolo[3,4-c]pyridin-7(4H)-one], the IC50 turned out to be 189 nM in experiment [1] and 111 nM in experiment [2]. The corresponding values for `Cc1nc(C(=O)Nc2cccc(Cl)c2F)nn1Cc1cnccn1` [Example 4, N-(3-Chloro-2-fluoro-phenyl)-5-methyl-1-(pyrazin-2-ylmethyl)-1,2,4-triazole-3-carboxamide] are 1430 nM and 110 nM. For `O=C(Nc1cccc(Cl)c1F)c1n[nH]c(Cc2ccccc2)n1` [Example 9, 5-benzyl-N-(3-chloro-2-fluoro-phenyl)-1H-1,2,4-triazole-3-carboxamide] the same measures were 6300 nM and 245 nM. For `Cn1nc(C(=O)Nc2cccc(Cl)c2F)nc1Cc1ccccc1` [Example 10, 5-Benzyl-N-(3-chloro-2-fluoro-phenyl)-1-methyl-1,2,4-triazole-3-carboxamide] the same measures were 9220 nM and 702 nM.

As to `Cn1cc(-c2cc(F)c(F)c(NC(=O)c3n[nH]c(Cc4ccccc4)n3)c2)cn1` [Example 11, 5-Benzyl-N-(2,3-difluoro-5-(1-methyl-1H-pyrazol-4-yl)-phenyl)-1H-1,2,4-triazole-3-carboxamide], the half-inhibitory concentration (IC50) in experiment [1] was over 10000 nM; in experiment [2] it was 4060 nM. As for `O=C(Nc1cccc(Cl)c1F)c1ncn(Cc2ccccc2F)n1` [Example 12, N-(3-chloro-2-fluorophenyl)-1-(2-fluorobenzyl)-1H-1,2,4-triazole-3-carboxamide], the IC50 in experiment [1] amounted to 657 nM; in experiment [2], 18.6 nM. The corresponding values for `Cc1nc(C(=O)Nc2cccc(Cl)c2F)nn1Cc1ccccc1` [Example 13, 1-benzyl-N-(3-chloro-2-fluorophenyl)-5-methyl-1H-1,2,4-triazole-3-carboxamide] are 1270 nM and 41.9 nM. The corresponding values for `O=C(Nc1cccc(Cl)c1F)c1nnc(Cc2ccccc2)o1` [Example 19, 5-Benzyl-N-(3-chloro-2-fluorophenyl)-1,3,4-oxadiazole-2-carboxamide] are over 10000 nM and 1010 nM. Regarding `O=C(Nc1ccccc1F)c1n[nH]c(Cc2ccccc2)n1` [Example 20, 5-benzyl-N-(2-fluorophenyl)-1H-1,2,4-triazole-3-carboxamide], the IC50 worked out at 6230 nM in experiment [1] and 521 nM in experiment [2]. For `O=C(Nc1cccc(Cl)c1)c1n[nH]c(Cc2ccccc2)n1` [Example 21, 5-benzyl-N-(3-chlorophenyl)-1H-1,2,4-triazole-3-carboxamide] the same measures were over 10000 nM and 854 nM. The corresponding values for `O=C(Nc1cccc(F)c1F)c1n[nH]c(Cc2ccccc2)n1` [Example 22, 5-benzyl-N-(2,3-difluorophenyl)-1H-1,2,4-triazole-3-carboxamide] are over 10000 nM and 1570 nM. The corresponding values for `O=C(Nc1cc(F)cc(F)c1F)c1n[nH]c(Cc2ccccc2)n1` [Example 23, 5-benzyl-N-(2,3,5-trifluorophenyl)-1H-1,2,4-triazole-3-carboxamide] are over 10000 nM and 2260 nM. For the compound `O=C(Nc1cc(Cl)cc(Cl)c1)c1n[nH]c(Cc2ccccc2)n1` [Example 24, 5-benzyl-N-(3,5-dichlorophenyl)-1H-1,2,4-triazole-3-carboxamide], the IC50 in experiment [1] is over 10000 nM; in experiment [2], 3360 nM. The corresponding values for `Cn1cc(-c2cc(Cl)c(F)c(NC(=O)c3n[nH]c(Cc4ccccc4)n3)c2)cn1` [Example 25, 5-benzyl-N-(3-chloro-2-fluoro-5-(1-methyl-1H-pyrazol-4-yl)phenyl)-1H-1,2,4-triazole-3-carboxamide] are 10000 nM and 4350 nM. For `O=C(Nc1cccc(Cl)c1F)c1ncn(Cc2ccccc2)n1` [Example 27, 1-benzyl-N-(3-chloro-2-fluorophenyl)-1H-1,2,4-triazole-3-carboxamide] the same measures were 851 nM and 30.6 nM. With `O=C(Nc1ccc(F)c(Cl)c1F)c1ncn(Cc2ccccc2)n1` [Example 28, 1-benzyl-N-(3-chloro-2,4-difluorophenyl)-1H-1,2,4-triazole-3-carboxamide], the concentration for half-maximal inhibition (IC50) turned out to be 1470 nM in experiment [1] and 40.3 nM in experiment [2]. As to `N#Cc1cccc(Cn2cnc(C(=O)Nc3cccc(Cl)c3F)n2)c1` [Example 29, N-(3-chloro-2-fluorophenyl)-1-(3-cyanobenzyl)-1H-1,2,4-triazole-3-carboxamide], the IC50 in experiment [1] turned out to be 356 nM; in experiment [2], 34.1 nM. For `COc1ccc(NC(=O)c2ncn(Cc3ccccc3)n2)c(F)c1Cl` [Example 30, 1-benzyl-N-(3-chloro-2-fluoro-4-methoxy-phenyl)-1H-1,2,4-triazole-3-carboxamide] the same measures were 1490 nM and 110 nM.

Take `O=C(Nc1ccc(O)c(Cl)c1F)c1ncn(Cc2ccccc2)n1` [Example 31, 1-benzyl-N-(3-chloro-2-fluoro-4-hydroxy-phenyl)-1H-1,2,4-triazole-3-carboxamide]: the results for the half-inhibitory concentration (IC50) in experiment [1] and in experiment [2] were 1700 nM and 160 nM, respectively. As to `O=C(Nc1cccc(Cl)c1F)c1ncn(Cc2cnccn2)n1` [Example 32, N-(3-chloro-2-fluoro-phenyl)-1-(pyrazin-2-ylmethyl)-1H-1,2,4-triazole-3-carboxamide], the IC50 in experiment [1] was determined as 1920 nM; in experiment [2], 257 nM.

For `N#Cc1ccc(Cn2cnc(C(=O)Nc3cccc(Cl)c3F)n2)cc1` [Example 33, N-(3-chloro-2-fluoro-phenyl)-1-(4-cyano-benzyl)-1H-1,2,4-triazole-3-carboxamide], the IC50 in experiment [1] came out at 5420 nM; in experiment [2] it was 389 nM. For `N#Cc1cc(Cl)c(F)c(NC(=O)c2ncn(Cc3ccccc3)n2)c1` [Example 35, 1-benzyl-N-(3-chloro-5-cyano-2-fluorophenyl)-1H-1,2,4-triazole-3-carboxamide] the same measures were 7290 nM and 703 nM. For `Cn1cc(-c2cc(Cl)c(F)c(NC(=O)c3ncn(Cc4ccccc4)n3)c2)cn1` [Example 36, 1-benzyl-N-(3-chloro-2-fluoro-5-(1-methyl-1H-pyrazol-4-yl)phenyl)-1H-1,2,4-triazole-3-carboxamide] the same measures were 10000 nM and 804 nM.

`O=C(Nc1cccc(Cl)c1F)c1nc2n(n1)[C@H](c1ccccc1)C[C@@H]2F` [Example 47, (5S,7S)—N-(3-chloro-2-fluorophenyl)-7-fluoro-5-phenyl-6,7-dihydro-5H-pyrrolo[1,2-b][1,2,4]triazole-2-carboxamide]: the results for the IC50 in experiment [1] and in experiment [2] were 24.8 nM and 48.4 nM, respectively. The corresponding values for `O=C1c2nn(Cc3cc(F)ccc3F)c(Cl)c2CCN1c1cccc(Cl)c1F` [Example 50, 3-Chloro-6-(3-chloro-2-fluorophenyl)-2-(2,5-difluorobenzyl)-5,6-dihydro-2H-pyrazolo[3,4-c]pyridin-7(4H)-one] are 42.5 nM and 18.6 nM.

On to `O=C(Nc1ccc(OC(F)(F)F)cc1F)c1ncn(Cc2ccccc2)n1` [Example 51, 1-benzyl-N-(2-fluoro-4-(trifluoromethoxy)-phenyl)-1H-1,2,4-triazole-3-carboxamide], for which the IC50 in experiment [1] was 8240 nM; in experiment [2], 807 nM. For `O=C(Nc1cccc(Cl)c1F)c1ncn(Cc2cncc(F)c2)n1` [Example 103, N-(3-chloro-2-fluorophenyl)-1-((5-fluoropyridin-3-yl)methyl)-1H-1,2,4-triazole-3-carboxamide], the IC50 in experiment [2] came out at 83.9 nM.

As a reminder, the IC50 is the concentration that gives 50% inhibition.

The values above are taken from patent US11718612B2, “Inhibitors of receptor interacting protein kinase I for the treatment of disease” (Board of Regents, The University of Texas System, priority 2019, dated 2023).
